The record followed here is US20250084039A1, “4-SUBSTITUTED AMINOISOQUINOLINE DERIVATIVES” (Purdue Research Foundation, priority 2016, published 2025).

Assay in all cases: Reaction Biology HotSpot kinase assay
Assay type in all cases: biochemical

One assay addresses Aurora A (Homo sapiens (Human), UniProt O14965). To be noted: 500 nM compound; for inhibition at 0.5 µM: read-out: Percentage kinase inhibition Aurora A. Put shortly: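 Phosphotransfer from [γ-33P]ATP was quantified after filter binding on P81 paper. Conditions: 20 mM HEPES pH 7.5, 10 mM MgCl2, 0.1 mM Na3VO4, 2 mM DTT, 0.02 mg/mL BSA; ATP 100 μM final; 2 h at room temperature. Compound was dosed at 500 nM.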

A further assay deals with TYK2 (Homo sapiens (Human), UniProt P29597). To be noted: 500 nM compound; for inhibition at 0.5 µM: read-out: Percentage kinase inhibition TYK2. Put shortly:
(§1)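 Each compound was tested at 500 nM, with 33P incorporation from ATP (100 μM final, including [γ-33P]ATP) measured by P81 paper capture after a 2 h room-temperature reaction.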

Another assay addresses CDK9/cyclin T1 (Homo sapiens (Human), UniProt P50750). To be noted: 500 nM compound; for inhibition at 0.5 µM: read-out: Percentage kinase inhibition CDK9/cyclin T1. Put shortly: as §1
The next assay concerns the target FER (Homo sapiens (Human), UniProt P16591). The settings on record: 500 nM compound; for inhibition at 0.5 µM: read-out: Percentage kinase inhibition FER. Summed up:
as §1

In another assay the target is FYN (Homo sapiens (Human), UniProt P06241). The settings on record: 500 nM compound; for inhibition at 0.5 µM: read-out: Percentage kinase inhibition FYN. Summed up:
as §1

Another assay addresses SYK (Homo sapiens (Human), UniProt P43405). The settings on record: 500 nM compound; for inhibition at 0.5 µM: read-out: Percentage kinase inhibition SYK. Put shortly: as §1
The target of the next assay is DDR2 (Homo sapiens (Human), UniProt Q16832). The settings on record: 500 nM compound; for inhibition at 0.5 µM: read-out: Percentage kinase inhibition DDR2. Put shortly:
as §1

A further assay concerns the target PAK1 (Homo sapiens (Human), UniProt Q13153). The settings on record: 500 nM compound; for inhibition at 0.5 µM: read-out: Percentage kinase inhibition PAK1. Summed up: as §1
A further assay deals with MUSK (Homo sapiens (Human), UniProt O15146). The settings on record: 500 nM compound; for inhibition at 0.5 µM: read-out: Percentage kinase inhibition MUSK. Put shortly:
as §1

For a further assay, the target named is LYN (Homo sapiens (Human), UniProt P07948). The settings on record: 500 nM compound; for inhibition at 0.5 µM: read-out: Percentage kinase inhibition LYN. Put shortly: as §1
Chain of LYN (P07948 whole entry): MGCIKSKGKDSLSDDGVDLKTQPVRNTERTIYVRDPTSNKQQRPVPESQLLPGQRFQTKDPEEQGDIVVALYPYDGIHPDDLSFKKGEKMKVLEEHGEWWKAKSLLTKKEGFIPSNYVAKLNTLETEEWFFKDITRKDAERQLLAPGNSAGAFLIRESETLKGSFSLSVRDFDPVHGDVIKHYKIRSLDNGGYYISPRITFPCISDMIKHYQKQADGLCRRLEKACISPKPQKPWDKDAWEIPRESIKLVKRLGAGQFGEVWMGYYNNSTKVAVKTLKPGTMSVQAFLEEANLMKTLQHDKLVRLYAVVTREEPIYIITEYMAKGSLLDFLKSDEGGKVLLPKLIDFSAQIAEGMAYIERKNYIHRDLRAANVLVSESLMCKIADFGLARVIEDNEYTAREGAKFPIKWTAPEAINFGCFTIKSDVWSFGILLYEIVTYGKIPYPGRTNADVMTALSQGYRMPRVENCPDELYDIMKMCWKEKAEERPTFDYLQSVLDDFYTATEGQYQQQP
For a further assay, the target named is RON/MST1R (Homo sapiens (Human), UniProt Q04912). To be noted: 500 nM compound; for inhibition at 0.5 µM: read-out: Percentage kinase inhibition RON/MST1R. Summed up: as §1
In a further assay the target is PIM1 (Homo sapiens (Human), UniProt P11309). To be noted: 500 nM compound; for inhibition at 0.5 µM: read-out: Percentage kinase inhibition PIM1. Put shortly: as §1
Chain of PIM1 (P11309 whole entry): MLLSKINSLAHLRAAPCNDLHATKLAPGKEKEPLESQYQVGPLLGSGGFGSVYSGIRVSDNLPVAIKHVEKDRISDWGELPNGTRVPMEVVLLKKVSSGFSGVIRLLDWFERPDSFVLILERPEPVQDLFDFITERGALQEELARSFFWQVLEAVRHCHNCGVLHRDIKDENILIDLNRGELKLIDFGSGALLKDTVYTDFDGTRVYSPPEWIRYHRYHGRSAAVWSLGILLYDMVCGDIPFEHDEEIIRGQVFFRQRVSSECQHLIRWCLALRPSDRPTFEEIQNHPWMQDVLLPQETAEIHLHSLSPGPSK
The next assay has as its target P38a/MAPK14 (Homo sapiens (Human), UniProt Q16539). To be noted: 500 nM compound; for inhibition at 0.5 µM: read-out: Percentage kinase inhibition P38a/MAPK14. Put shortly:
as §1

The target of another assay is ITK (Homo sapiens (Human), UniProt Q08881). The settings on record: 500 nM compound; for inhibition at 0.5 µM: read-out: Percentage kinase inhibition ITK. Summed up:
as §1

For a further assay, the target named is IRR/INSRR (Homo sapiens (Human), UniProt P14616). To be noted: 500 nM compound; for inhibition at 0.5 µM: read-out: Percentage kinase inhibition IRR/INSRR. Put shortly: as §1
A further assay concerns the target CDK6/cyclin D3 (Homo sapiens (Human), UniProt Q00534). To be noted: 500 nM compound; for inhibition at 0.5 µM: read-out: Percentage kinase inhibition CDK6/cyclin D3. Put shortly:
as §1

Another assay concerns the target ROCK1 (Homo sapiens (Human), UniProt Q13464). To be noted: 500 nM compound; for inhibition at 0.5 µM: read-out: Percentage kinase inhibition ROCK1. Summed up: as §1
The target of the next assay is c-kit (Homo sapiens (Human), UniProt P10721). To be noted: 500 nM compound, 100 μM radiolabeled ATP. Put shortly: (§2)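 Compounds were screened at one concentration, 500 nM, in a radiometric kinase reaction. After a 20-minute preincubation with enzyme and substrate in pH 7.5 HEPES buffer (1% DMSO), the mixture received 100 μM ATP containing [γ-33P]ATP and was left 2 h at room temperature.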

A further assay concerns the target ERBB4/HER4 (Homo sapiens (Human), UniProt Q15303). To be noted: 500 nM compound; for inhibition at 0.5 µM: read-out: Percentage kinase inhibition ERBB4/HER4. Put shortly:
as §1

The next assay concerns the target CDK4/cyclin D1 (Homo sapiens (Human), UniProt P11802). To be noted: 500 nM compound; for inhibition at 0.5 µM: read-out: Percentage kinase inhibition CDK4/cyclin D1. Put shortly: as §2
The next assay concerns the target RSK2 (Homo sapiens (Human), UniProt P51812). The settings on record: 500 nM compound; for inhibition at 0.5 µM: read-out: Percentage kinase inhibition RSK2. Put shortly: as §1
The target in a further assay is TGFBR2 (Homo sapiens (Human), UniProt P37173). The settings on record: 500 nM compound; for inhibition at 0.5 µM: read-out: Percentage kinase inhibition TGFBR2. Put shortly: as §1
Chain of TGFBR2 (P37173 23-567): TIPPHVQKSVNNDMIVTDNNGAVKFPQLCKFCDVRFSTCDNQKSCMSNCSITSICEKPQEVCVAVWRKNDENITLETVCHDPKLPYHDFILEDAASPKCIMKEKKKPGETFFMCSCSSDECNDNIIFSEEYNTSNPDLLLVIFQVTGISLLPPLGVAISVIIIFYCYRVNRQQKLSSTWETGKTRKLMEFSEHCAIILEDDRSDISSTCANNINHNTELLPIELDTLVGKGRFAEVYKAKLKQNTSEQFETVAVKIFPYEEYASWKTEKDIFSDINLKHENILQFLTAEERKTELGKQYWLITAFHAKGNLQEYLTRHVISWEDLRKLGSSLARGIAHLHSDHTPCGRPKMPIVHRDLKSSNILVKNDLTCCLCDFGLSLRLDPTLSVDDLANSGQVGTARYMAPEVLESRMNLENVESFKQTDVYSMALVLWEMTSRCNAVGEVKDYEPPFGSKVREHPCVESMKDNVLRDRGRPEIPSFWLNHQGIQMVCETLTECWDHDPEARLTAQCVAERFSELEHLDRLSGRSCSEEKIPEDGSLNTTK
For a further assay, the target named is BRK (Homo sapiens (Human), UniProt Q13882). To be noted: 500 nM compound; for inhibition at 0.5 µM: read-out: Percentage kinase inhibition BRK. Summed up: as §2
Another assay addresses IGF1R (Homo sapiens (Human), UniProt P08069). To be noted: 500 nM compound; for inhibition at 0.5 µM: read-out: Percentage kinase inhibition IGF1R. Put shortly: as §1
The next assay deals with JNK1 (Homo sapiens (Human), UniProt P45983). The settings on record: 500 nM compound; for inhibition at 0.5 µM: read-out: Percentage kinase inhibition JNK1. Summed up:
as §1

A further assay concerns the target FAK/PTK2 (Homo sapiens (Human), UniProt Q05397). To be noted: 500 nM compound; for inhibition at 0.5 µM: read-out: Percentage kinase inhibition FAK/PTK2. Put shortly: as §1
The subject of another assay is RAF1. To be noted: 500 nM compound. Put shortly: as §1
The next assay has as its target MST4 (Homo sapiens (Human), UniProt Q9P289). To be noted: 500 nM compound; for inhibition at 0.5 µM: read-out: Percentage kinase inhibition MST4. Put shortly: as §1
The target of the next assay is MEKK1 (Homo sapiens (Human), UniProt Q13233). The settings on record: 500 nM compound; for inhibition at 0.5 µM: read-out: Percentage kinase inhibition MEKK1. Put shortly: as §1
Chain of MEKK1 (Q13233 whole entry): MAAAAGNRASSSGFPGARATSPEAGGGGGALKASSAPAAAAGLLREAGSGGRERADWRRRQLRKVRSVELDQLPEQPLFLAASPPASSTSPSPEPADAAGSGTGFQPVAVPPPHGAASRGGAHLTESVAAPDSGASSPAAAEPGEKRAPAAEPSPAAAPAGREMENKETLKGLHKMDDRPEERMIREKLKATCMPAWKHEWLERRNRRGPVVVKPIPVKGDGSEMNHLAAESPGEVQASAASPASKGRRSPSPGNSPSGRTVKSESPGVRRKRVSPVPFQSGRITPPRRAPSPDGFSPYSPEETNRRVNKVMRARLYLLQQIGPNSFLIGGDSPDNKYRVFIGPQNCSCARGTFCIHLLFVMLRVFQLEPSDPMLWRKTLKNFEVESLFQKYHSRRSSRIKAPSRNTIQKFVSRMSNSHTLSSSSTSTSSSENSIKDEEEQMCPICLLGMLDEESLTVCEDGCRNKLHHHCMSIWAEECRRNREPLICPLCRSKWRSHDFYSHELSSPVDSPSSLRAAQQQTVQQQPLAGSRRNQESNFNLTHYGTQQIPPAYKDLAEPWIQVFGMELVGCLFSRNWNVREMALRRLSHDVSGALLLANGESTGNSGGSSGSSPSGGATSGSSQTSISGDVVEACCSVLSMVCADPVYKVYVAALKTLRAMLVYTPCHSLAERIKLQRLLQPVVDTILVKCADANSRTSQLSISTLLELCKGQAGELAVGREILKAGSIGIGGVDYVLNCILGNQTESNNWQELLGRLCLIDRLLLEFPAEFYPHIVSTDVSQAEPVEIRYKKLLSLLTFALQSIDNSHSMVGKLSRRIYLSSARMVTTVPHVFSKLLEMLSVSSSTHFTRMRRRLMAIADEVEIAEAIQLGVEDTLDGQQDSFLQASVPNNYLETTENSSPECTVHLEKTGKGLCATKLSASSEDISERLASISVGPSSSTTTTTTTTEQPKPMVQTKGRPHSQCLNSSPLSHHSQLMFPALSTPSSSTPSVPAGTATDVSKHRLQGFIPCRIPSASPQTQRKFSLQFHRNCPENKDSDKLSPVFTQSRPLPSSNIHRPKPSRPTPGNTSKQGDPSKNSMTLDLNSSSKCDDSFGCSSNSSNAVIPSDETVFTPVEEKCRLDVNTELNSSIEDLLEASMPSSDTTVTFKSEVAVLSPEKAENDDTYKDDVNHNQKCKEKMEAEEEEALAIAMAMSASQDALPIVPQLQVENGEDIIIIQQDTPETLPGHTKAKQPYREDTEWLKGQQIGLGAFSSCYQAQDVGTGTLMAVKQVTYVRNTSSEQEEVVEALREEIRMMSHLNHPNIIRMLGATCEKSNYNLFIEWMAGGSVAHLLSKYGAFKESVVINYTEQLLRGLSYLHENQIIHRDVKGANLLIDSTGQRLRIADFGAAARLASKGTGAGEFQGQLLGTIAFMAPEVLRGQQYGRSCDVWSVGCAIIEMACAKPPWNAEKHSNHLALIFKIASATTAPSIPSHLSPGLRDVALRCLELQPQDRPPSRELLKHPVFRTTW
Another assay concerns the target KSR1 (Homo sapiens (Human), UniProt Q8IVT5). The settings on record: 500 nM compound; for inhibition at 0.5 µM: read-out: Percentage kinase inhibition KSR1. Put shortly: as §1
Another assay concerns the target CDK9/cyclin K (Homo sapiens (Human), UniProt P50750). The settings on record: 500 nM compound; for inhibition at 0.5 µM: read-out: Percentage kinase inhibition CDK9/cyclin K. Summed up:
as §1

Chain of IGF1R (P08069 31-1367): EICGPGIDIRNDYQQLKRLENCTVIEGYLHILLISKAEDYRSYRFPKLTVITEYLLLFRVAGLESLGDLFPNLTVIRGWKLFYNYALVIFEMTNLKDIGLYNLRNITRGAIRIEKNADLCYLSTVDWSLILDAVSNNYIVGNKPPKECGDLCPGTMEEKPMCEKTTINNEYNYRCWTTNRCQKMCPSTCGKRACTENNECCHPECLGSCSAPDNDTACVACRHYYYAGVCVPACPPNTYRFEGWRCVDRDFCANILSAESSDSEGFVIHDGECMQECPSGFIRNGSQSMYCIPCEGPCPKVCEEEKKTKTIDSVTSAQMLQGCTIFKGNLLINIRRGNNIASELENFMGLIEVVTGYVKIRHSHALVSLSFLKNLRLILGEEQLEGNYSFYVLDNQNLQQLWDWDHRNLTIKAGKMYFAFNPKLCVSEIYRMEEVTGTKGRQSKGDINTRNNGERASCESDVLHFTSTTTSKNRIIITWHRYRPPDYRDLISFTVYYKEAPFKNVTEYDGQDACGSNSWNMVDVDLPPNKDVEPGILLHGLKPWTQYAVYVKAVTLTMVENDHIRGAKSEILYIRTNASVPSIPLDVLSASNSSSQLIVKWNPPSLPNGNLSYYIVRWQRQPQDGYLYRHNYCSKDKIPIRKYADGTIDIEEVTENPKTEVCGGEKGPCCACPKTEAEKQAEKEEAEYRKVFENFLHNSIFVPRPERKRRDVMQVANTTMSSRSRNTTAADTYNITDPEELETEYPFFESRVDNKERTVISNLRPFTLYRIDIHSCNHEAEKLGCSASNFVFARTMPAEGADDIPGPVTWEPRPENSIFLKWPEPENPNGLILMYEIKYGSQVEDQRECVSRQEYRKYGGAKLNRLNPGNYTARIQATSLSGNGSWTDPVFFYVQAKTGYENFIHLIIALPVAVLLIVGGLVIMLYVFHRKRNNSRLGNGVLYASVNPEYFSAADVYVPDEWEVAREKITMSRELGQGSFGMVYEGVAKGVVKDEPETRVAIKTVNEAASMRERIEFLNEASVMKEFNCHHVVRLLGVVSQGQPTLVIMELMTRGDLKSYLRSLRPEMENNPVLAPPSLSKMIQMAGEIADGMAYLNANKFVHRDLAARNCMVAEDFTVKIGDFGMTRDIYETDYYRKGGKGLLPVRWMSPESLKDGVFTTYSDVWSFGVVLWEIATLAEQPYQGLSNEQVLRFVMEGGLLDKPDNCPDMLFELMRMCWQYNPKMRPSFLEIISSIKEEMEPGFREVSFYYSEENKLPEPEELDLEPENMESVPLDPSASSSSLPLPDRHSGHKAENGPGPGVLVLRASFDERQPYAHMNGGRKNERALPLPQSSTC
Chain of CDK4/cyclin D1 (P11802 whole entry): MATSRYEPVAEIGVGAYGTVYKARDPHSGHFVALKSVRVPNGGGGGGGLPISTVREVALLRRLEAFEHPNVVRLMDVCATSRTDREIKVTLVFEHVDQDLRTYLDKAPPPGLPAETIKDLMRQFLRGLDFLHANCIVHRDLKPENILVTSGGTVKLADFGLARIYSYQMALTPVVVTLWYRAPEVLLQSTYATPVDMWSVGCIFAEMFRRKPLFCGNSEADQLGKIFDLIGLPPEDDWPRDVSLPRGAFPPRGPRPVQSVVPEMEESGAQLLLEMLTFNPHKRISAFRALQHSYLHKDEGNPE
Chain of CDK4/cyclin D1 (P24385 whole entry partner): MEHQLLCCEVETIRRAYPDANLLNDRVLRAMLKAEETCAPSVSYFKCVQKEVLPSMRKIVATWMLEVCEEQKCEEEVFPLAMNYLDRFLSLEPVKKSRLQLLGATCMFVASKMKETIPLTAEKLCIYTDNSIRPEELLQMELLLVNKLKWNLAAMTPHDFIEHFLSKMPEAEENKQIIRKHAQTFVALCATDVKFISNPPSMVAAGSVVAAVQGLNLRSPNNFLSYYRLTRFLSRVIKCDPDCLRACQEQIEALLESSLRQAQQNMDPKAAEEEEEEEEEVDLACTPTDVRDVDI

With `Cc1ccc(C(=O)Nc2ccc(CN3CCN(C)CC3)c(C(F)(F)F)c2)cc1C#Cc1c(N)ncc2ccc(Cl)cc12` [HSN286], the inhibition at 0.5 µM stood at 0% at Aurora A; 0% at TYK2; 0% at CDK9/cyclin T1; 0% on FER; 100% on FYN; 0% at SYK. Besides, the inhibition at 0.5 µM on DDR2 is 77%; at PAK1 it was 0%; on MUSK it was 13%; on LYN, 98%; on RON/MST1R it was 0%; at PIM1, 0%. Further, the inhibition at 0.5 µM is 81% on P38a/MAPK14; 0% on ITK; 0% at IRR/INSRR; 7% at CDK6/cyclin D3; 0% at ROCK1; 61% against c-kit. Moreover, the inhibition at 0.5 µM at ERBB4/HER4 was 71%; on CDK4/cyclin D1, 0%; on RSK2, 0%; on TGFBR2, 15%; on BRK it was 92%; at IGF1R, 0%. Moreover, the inhibition at 0.5 µM was 7% on JNK1; 0% at FAK/PTK2; 0% at MST4; 6% on MEKK1; 0% on KSR1; 24% on CDK9/cyclin K. Moreover, the “Percentage kinase inhibition RAF1” value in the assay on RAF1 is reported as 94%.

In the case of `Cc1ccc(C(=O)Nc2ccc(CN3CCN(C)CC3)c(C(F)(F)F)c2)cc1C#Cc1cc(N)nc2ccccc12` [HSN285], on c-kit, the inhibition at 0.5 µM worked out at 31%. The “Percentage kinase inhibition RAF1” value in the assay on RAF1 is 90%.

`CN(C)CC(O)CNC(=O)c1ccc(C#Cc2c(N)ncc3ccc(Cl)cc23)cc1` (stereo not shown) [HSM1702]: on Aurora A, the “Percentage kinase inhibition Aurora A” value came out at 19%. For the same compound, the “Percentage kinase inhibition TYK2” value at TYK2 is 2%. The “Percentage kinase inhibition CDK9/cyclin T1” value at CDK9/cyclin T1 is 41%. Also, the “Percentage kinase inhibition FER” value on FER was 0%. For the same compound, the “Percentage kinase inhibition FYN” value at FYN was found to be 16%. Further, on SYK, the “Percentage kinase inhibition SYK” value amounted to 4%. In addition, the “Percentage kinase inhibition DDR2” value on DDR2 is 0%. Also, the “Percentage kinase inhibition PAK1” value at PAK1 is listed as 1%. In addition, the “Percentage kinase inhibition MUSK” value at MUSK is given as 35%. The “Percentage kinase inhibition LYN” value at LYN was found to be 6%. Besides, the “Percentage kinase inhibition RON/MST1R” value on RON/MST1R stood at 0%. In addition, the “Percentage kinase inhibition PIM1” value at PIM1 was determined as 34%. Further, on P38a/MAPK14, the “Percentage kinase inhibition P38a/MAPK14” value turned out to be 0%. On ITK, the “Percentage kinase inhibition ITK” value stood at 0%. For the same compound, at IRR/INSRR, the “Percentage kinase inhibition IRR/INSRR” value is 10%. Besides, the “Percentage kinase inhibition CDK6/cyclin D3” value at CDK6/cyclin D3 was found to be 50%. On ROCK1, the “Percentage kinase inhibition ROCK1” value was determined as 0%. At c-kit, the “% inhibition of c-Kit” value turned out to be 83%. Further, the “Percentage kinase inhibition ERBB4/HER4” value at ERBB4/HER4 is on record as 0%. For the same compound, the “Percentage kinase inhibition CDK4/cyclin D1” value on CDK4/cyclin D1 was 16%. In addition, the “Percentage kinase inhibition RSK2” value on RSK2 was determined as 7%. Besides, the “Percentage kinase inhibition TGFBR2” value at TGFBR2 is given as 0%. For the same compound, the “Percentage kinase inhibition BRK” value on BRK is 18%. Moreover, at IGF1R, the “Percentage kinase inhibition IGF1R” value came out at 3%. Also, the “Percentage kinase inhibition JNK1” value on JNK1 was determined as 0%. Moreover, the “Percentage kinase inhibition FAK/PTK2” value at FAK/PTK2 worked out at 6%. In the assay on RAF1, the “Percentage kinase inhibition RAF1” value is 5%. Also, the “Percentage kinase inhibition MST4” value at MST4 is 0%. For the same compound, the “Percentage kinase inhibition MEKK1” value at MEKK1 came to 4%. On KSR1, the “Percentage kinase inhibition KSR1” value is recorded as 0%. Further, at CDK9/cyclin K, the “Percentage kinase inhibition CDK9/cyclin K” value came to 53%.

For `COc1cc2nc(N)nc(C#Cc3cc(C(=O)Nc4ccc(CN5CCN(C)CC5)c(C(F)(F)F)c4)ccc3C)c2cc1OC` [HSN325], the inhibition at 0.5 µM at Aurora A worked out at 0%; at TYK2, 0%; at CDK9/cyclin T1, 0%; on FER, 12%; at FYN it was 10%; at SYK, 0%. Further, the inhibition at 0.5 µM is 81% on DDR2; 0% at PAK1; 0% on MUSK; 69% on LYN; 0% on RON/MST1R; 0% on PIM1. Also, the inhibition at 0.5 µM amounted to 5% at P38a/MAPK14; 1% on ITK; 0% on IRR/INSRR; 0% at CDK6/cyclin D3; 3% at ROCK1; 7% at ERBB4/HER4. Moreover, the inhibition at 0.5 µM on CDK4/cyclin D1, on RSK2, at TGFBR2, at BRK, at IGF1R and at JNK1 was 0% throughout. The inhibition at 0.5 µM at FAK/PTK2 stood at 0%; on MST4 it was 0%; at MEKK1, 4%; on KSR1, 0%; at CDK9/cyclin K it was 7%.

On to `Cc1ccc(C(=O)Nc2ccc(CN3CCN(C)CC3)c(C(F)(F)F)c2)cc1C#Cc1cnc(N)c2ncccc12` [HSN356, 3-((8-amino-1,7-naphthyridin-5-yl)ethynyl)-4-methyl-N-(4-((4-methylpiperazin-1-yl)methyl)-3-(trifluoromethyl)phenyl)benzamide], for which the inhibition at 0.5 µM against c-kit is 87%. In addition, the “Percentage kinase inhibition RAF1” value with RAF1 amounted to 100%.

Consider `Cc1ccc(C(=O)Nc2ccc(CN3CCN(C)CC3)c(C(F)(F)F)c2)cc1C#Cc1cnc(N)c2ccccc12` [HSN334, 3-((1-aminoisoquinolin-4-yl)ethynyl)-4-methyl-N-(4-((4-methylpiperazin-1-yl)methyl)-3-(trifluoromethyl)phenyl)benzamide], for which the inhibition at 0.5 µM on c-kit amounted to 73%. In the assay with RAF1, the “Percentage kinase inhibition RAF1” value is 96%.
